# Measured values: US9572878B2, “Method of combination therapy using an EGFR antagonist and anti-c-Met antibody” (SAMSUNG ELECTRONICS CO., LTD., priority 2013, dated 2017)
# B1: scFv of huAbF46: VH-linker-VL single-chain Fv of the huAbF46 antibody (polynucleotide SEQ ID NO: 55) (protein)
# scFv: EVQLVESGGGLVQPGGSLRLSCAASGFTFTDYYMSWVRQAPGKGLEWLGFIRNKANGYTTEYSASVKGRFTISRDNSKNTLYLQMNSLRAEDTAVYYCARDNWFAYWGQGTLVTVSSGLGGLGGGGSGGGGSGGSSGVGSDIQMTQSPSSLSASVGDRVTITCKSSQSLLASGNQNNYLAWHQQKPGKAPKMLIIWASTRVSGVPSRFSGSGSGTDFTLTISSLQPEDFATYYCQQSYSAPLTFGQGTKVEIKR
# Legend:
# [1] = tested on: HCC827 ER #15 cell line; assay: Confirmation of erlotinib resistance, cell number by CCK-8; assay type: cell-based, human; conditions: HCC827 ER #15 vs HCC827; various concentrations, 120 hours; FIG. 3
# Procedure: HCC827 human lung cancer cell line was in vitro treated with an EGFR antagonist erlotinib for a given period to establish HCC827 ER(HCC827 erlotinib-resistant) cell line. More specifically, HCC827 human lung cancer cell line (CRL-2868, ATCC) was in vitro treated with an EGFR antagonist erlotinib (Roche) in an amount of 5 nM to 10 nM for 5 months or more, to construct Erlotinib resistant cell (ER cell) clone.
# [2] = tested on: HCC827 ER #15; assay: Combined use of erlotinib and antibodies in erlotinib resistant cell line, cell number by CCK-8; assay type: cell-based, human
# Procedure: In a 96 well plate, diluted HCC827 ER #15 was seeded at 5000 cells/well in a […] medium (GIBCO) containing 10% FBS, and then, incubated at 37° C. overnight. On the next day, the medium was replaced with a RPMI1640 medium containing 1% FBS (GIBCO), and then, the antibody was serially diluted from 100 ug/ml, and the cells were treated therewith at 100 ul. For co-administration, the cells were treated with 10 nM or 100 nM erlotinib, together with the antibody. After 5 days, the number of cells was measured using a CCK-8 reagent (Dojindo laboratory).
# [3] = molecular target: c-Met (Homo sapiens, UniProt P08581); assay: Specificity of expressed scFv of huAbF46; assay type: binding; conditions: expressed scFv product
# Source text: For use in constructing an scFv of the huAbF46 antibody from the heavy and light chain variable regions of the huAbF46 antibody, a gene was designed to have the structure of “VH-linker-VL” for each of the heavy and the light chain variable region, with the linker having the amino acid sequence “[…]” (SEQ ID NO: 54). A polynucleotide sequence (SEQ ID NO: 55) encoding the designed scFv of huAbF46 was synthesized in Bioneer and an expression vector for the polynucleotide had the nucleotide sequence of SEQ ID NO: 56.
# c-Met, sequence (P08581 25-1390): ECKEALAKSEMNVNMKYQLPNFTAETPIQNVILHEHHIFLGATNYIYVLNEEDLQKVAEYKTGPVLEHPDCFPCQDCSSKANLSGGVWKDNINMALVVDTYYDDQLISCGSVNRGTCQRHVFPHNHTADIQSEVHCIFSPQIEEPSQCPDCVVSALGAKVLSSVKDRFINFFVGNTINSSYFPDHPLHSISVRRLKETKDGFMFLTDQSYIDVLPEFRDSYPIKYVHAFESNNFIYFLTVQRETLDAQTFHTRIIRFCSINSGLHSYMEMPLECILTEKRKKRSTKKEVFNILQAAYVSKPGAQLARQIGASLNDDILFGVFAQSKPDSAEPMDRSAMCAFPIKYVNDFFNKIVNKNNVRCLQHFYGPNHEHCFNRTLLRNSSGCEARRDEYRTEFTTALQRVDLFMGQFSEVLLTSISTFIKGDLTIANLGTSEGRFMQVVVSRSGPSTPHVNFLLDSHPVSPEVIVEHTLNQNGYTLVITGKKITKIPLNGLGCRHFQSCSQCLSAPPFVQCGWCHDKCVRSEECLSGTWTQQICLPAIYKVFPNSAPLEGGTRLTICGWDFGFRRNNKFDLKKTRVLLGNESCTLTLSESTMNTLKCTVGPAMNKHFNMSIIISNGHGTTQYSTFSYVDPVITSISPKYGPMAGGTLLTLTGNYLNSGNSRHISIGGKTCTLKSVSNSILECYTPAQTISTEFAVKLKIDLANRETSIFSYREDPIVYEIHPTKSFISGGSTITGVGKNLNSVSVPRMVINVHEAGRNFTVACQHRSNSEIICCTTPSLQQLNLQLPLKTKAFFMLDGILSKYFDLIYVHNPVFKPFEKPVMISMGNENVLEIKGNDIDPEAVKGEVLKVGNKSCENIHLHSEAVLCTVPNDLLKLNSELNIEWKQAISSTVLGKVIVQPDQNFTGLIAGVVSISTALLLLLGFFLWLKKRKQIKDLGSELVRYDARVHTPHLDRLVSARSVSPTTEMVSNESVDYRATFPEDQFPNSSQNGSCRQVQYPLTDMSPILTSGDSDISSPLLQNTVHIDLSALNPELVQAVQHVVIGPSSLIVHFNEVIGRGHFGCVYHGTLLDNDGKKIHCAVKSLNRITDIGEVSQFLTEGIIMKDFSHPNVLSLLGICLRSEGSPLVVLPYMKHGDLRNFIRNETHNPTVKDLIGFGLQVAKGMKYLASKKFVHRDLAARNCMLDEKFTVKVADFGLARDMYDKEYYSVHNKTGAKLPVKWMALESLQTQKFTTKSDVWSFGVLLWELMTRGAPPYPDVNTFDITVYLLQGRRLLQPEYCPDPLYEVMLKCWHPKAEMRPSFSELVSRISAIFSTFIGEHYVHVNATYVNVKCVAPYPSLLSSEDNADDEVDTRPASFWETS
molecule,measurement,setting,value
C#Cc1cccc(Nc2ncnc3cc(OCCOC)c(OCCOC)cc23)c1 [erlotinib],resistance of cell line to EGFR antagonist,[1],resistance occurred
Rituximab [reference compound],synergistic effect of co-administration with erlotinib,"[2]; HCC827 ER #15, antibody dilution series with 10 nM or 100 nM erlotinib, 5 days, FIGS. 4a-4d",synergistic effect was not observed
same,"synergistic effects on cell viability, co-administration with erlotinib at fixed concentrations","[2]; HCC827 ER#15, antibodies 0.14 μg/ml, erlotinib 10 nM, FIG. 5",synergistic effects were not observed
B1,specificity to c-Met,[3],exhibit specificity to c-Met
